Assay results from patent US10287311B2, “Modified fluorinated nucleoside analogues” (priority 2003, dated 2019).
Like-named read-outs stand apart in the source and are kept apart here.

Experiments:
BVDV = test: (BVDV) yield reduction assay; assay type: cell-based, bovine viral diarrhea virus; conditions: for EC90: Bovine viral diarrhea virus isolates and strains
Procedure: Madin-Darby Bovine Kidney (MDBK) cells were grown in Dulbecco's modified eagle medium supplemented with 10% horse serum and 100 μg/ml penicillin-streptomycin. Cells were seeded in a 96-well plate at 5×10^3 cells/well and incubated for 72h at 37° C. in a humidified 5% CO2 atmosphere. Cells were infected with either cytopathic (NADL strain) or noncytopathic (SD-1 strain) BVDV at a virus dilution of 10-2 and incubated for 45 min. Cell monolayers were washed three times with medium. Fresh medium-containing test compounds in dose response concentrations or ribavirin, as a positive control, were added to cultures and medium containing no drug was added to the no-drug controls. After 72h incubation, supernatant was collected and viral RNA was extracted using the QIAmp Viral RNA Mini Kit (Qiagen, CA). Viral load was determined by Q-RT-PCR using primers specific for either NADL or SD-1 (1).

[1] = system: Human bone marrow cells, CFU-GM; test: Bone marrow toxicity assay, CFU-GM; assay type: cell-based
Procedure: (§1) The culture assays for CFU-GM and BFU-E are performed using a bilayer soft agar or methylcellulose method. Drugs are diluted in tissue culture medium and filtered. After 14 to 18 days at 37° C. in a humidified atmosphere of 5% CO2 in air, colonies of greater than 50 cells are counted using an inverted microscope. The results are presented as the percent inhibition of colony formation in the presence of drug compared to solvent control cultures.

[2] = Cytotoxicity assay (MTS), CloneA; assay type: cell-based; conditions: human, Clone A cells
Procedure: (§2) 50 μl of 2× drug dilutions were added per well in a 96 well plate. Final concentrations of drug ranged from 1 to 100 μM. A “no drug” (media only) control was used to determine the minimum absorbance values and a “cells+media only” control was used for maximum absorbance value. A solvent control was also used. Cells were then added (PBM: 5×10^4 cells/well; CEM: 2.5×10^3 cells/well; Vero, HepG2, Huh-7, and Clone A: 5×10^3 cells/well) and incubated at 37° C. in a humidified 5% CO2 atmosphere for 3-5 days (PBM: 5 days; CEM: 3 days, all others: 4 days). After incubation, 20 μl of MTS dye was added from Cell Titer Aqueous One Solution Cell Proliferation Assay to each well and the plate was re-incubated for 2-4 hours. The absorbance (490 nm) was then read on an ELISA plate reader using the media only/no cell wells as blanks. Percent inhibition was found and used to calculate the CC50.

replicon HCV RNA = test: HCV replicon assay (clone not specified); conditions: Hepatitis C virus, read-out: EC90 values, range for the replicon clones, range over replicon clones of Table 1
[3] = Cytotoxicity assay (MTS), all cell lines tested; assay type: cell-based; conditions: human, bovine, African green monkey, Clone A, Huh7, HepG2, MDBK, PBM, CEM, Vero and MRC-5 cells; summary in text over all cell lines
Procedure: as §2
In contrast is the relative toxicity of 2′-C-methyladenosine.

[4] = Cytotoxicity assay (MTS), Huh7; assay type: cell-based; conditions: human, Huh7 cells
Procedure: as §2

RSV = test: Antiviral activity, RSV; assay type: cell-based; conditions: human respiratory syncytial virus
[5] = system: Human bone marrow cells, BFU-E; test: Bone marrow toxicity assay, BFU-E; assay type: cell-based
Procedure: as §1

HepG2 cells = test: Mitochondria toxicity assay; assay type: cell-based; conditions: 7 days
Procedure: Fifty microliters of 2× drug dilutions were added per well in a 96 well plate. […] Ribosomal DNA levels were used to determine specific toxicity to mitochondria or generally cytotoxicity. HepG2 cells (5,000 cells/well at 50 μl) were added to the plate. The plate was incubated at 37° C. in a humidified 5% CO2 atmosphere for 7 days. After incubation, the supernatant was removed and stored for lactic acid quantification, and total DNA was extracted from cells as described in the RNeasy 96 handbook (February 1999), pages 22-23. No DNA digestions were performed, therefore total RNA and DNA were extracted. The extracted DNA was amplified and the change in mitochondrial DNA and ribosomal DNA for each sample was determined. The fold difference in mitochondrial DNA normalized for ribosomal DNA relative to control was calculated. Lactic acid quantification was performed by the D-Lactic Acid/L-Lactic acid test kit (Boehringer Mannheim/R-Biopharm/Roche). The total amount of lactic acid produced for each sample was found as well as the fold change in lactic acid production (% of lactic acid/% of rDNA) as described in the manufacturers instructions.

[6] = Cytotoxicity assay (MTS), HepG2; assay type: cell-based; conditions: human, HepG2 cells
Procedure: as §2

HBV = test: Antiviral activity, HBV; assay type: cell-based; conditions: Hepatitis B virus; HBV
[7] = Cytotoxicity assay (MTS), MDBK; assay type: cell-based; conditions: bovine, MDBK cells
[8] = system: serum amino transferase levels; conditions: Gary L. Davis, 2000; cited from earlier work
HCV replicon system = conditions: Stuyver et al. 2003; cited from earlier work

Question: For `C[C@@]1(O)[C@H](O)[C@@H](CO)O[C@H]1n1ccc(N)nc1=O` [2′-C-methylcytidine], which “activity on HCV surrogate model BVDV (in words)” value (BVDV) is on record?
Answer: greater activity

Question: And the EC90 (BVDV; BVDVcp)?
Answer: 2 µM

Question: What about the EC90 (BVDV; BVDVncp) of the same molecule?
Answer: 0.5 µM

Question: And the IC50 ([1]; CFU-GM)?
Answer: 13.2 µM

Question: What about the CC50 at 4 days [2] of the same molecule?
Answer: > 100 µM

Question: What about the EC90 (replicon HCV RNA) of the same molecule?
Answer: 6.6 to 37.4 µM

Question: And the CC50 [3]?
Answer: 75 to 100 µM

Question: And the CC50 at 4 days [4]?
Answer: > 100 µM

Question: And the EC90 (RSV)?
Answer: > 100 µM

Question: What about the IC50 ([5]; Bone marrow cell) of the same molecule?
Answer: 20.1 µM

Question: What about the “Lactic Acid Increase” value (HepG2 cells) of the same molecule?
Answer: No effect ≥ 33 μM

Question: What about the IC50 (HepG2 cells; Homo sapiens, 168 h, read-out: mtDNA Synthesis (IC50)) of the same molecule?
Answer: > 25 µM

Question: And the CC50 at 4 days [6]?
Answer: > 100 µM

Question: And the EC90 (HBV)?
Answer: > 10 µM

Question: What about the CC50 at 4 days [7] of the same molecule?
Answer: > 100 µM

Question: With `Cc1cn([C@H]2C[C@H](N=[N+]=[N-])[C@@H](CO)O2)c(=O)[nH]c1=O` [AZT] as the molecule, how does the IC50 [1] read?
Answer: 0.95 µM

Question: What about the IC50 [5] of the same molecule?
Answer: 0.08 µM

Question: Which “patients with serum amino transferase levels reduced to normal” value [8] does the source give for `NC(=O)c1ncn([C@@H]2O[C@H](CO)[C@@H](O)[C@H]2O)n1` [Ribavirin, 1-β-D-ribofuranosyl-1-1,2,4-triazole-3-carboxamide] here?
Answer: 40%

Question: And the “specific anti-HCV activity in the HCV replicon system” value (HCV replicon system)?
Answer: does not have specific anti-HCV activity
